Measurements from patent publication EP3301100A1, “ORGANOMETALLIC FLUCONAZOLE DERIVATES AND THEIR USE AS ANTIMYCOTICS” (Universität Zürich, priority 2016, dated 2018).
In brackets after ≈: the same amount, converted by molar mass.

How the values were obtained:
Candida albicans = experiment: Antifungal activity on pathological isolated strain (EUCAST susceptibility testing, MIC50); format: cell-based; settings: C. albicans, ≥ 50% inhibition of growth after 48 h incubation
Method: (§1) In vivo studies were performed on pathological isolated strains. […] The compounds of the present invention were tested against Candida albicans, its azole-resistant type and three different pathologic fungi, namely Penicillumpaneum, Aspergillus glaucus and Trichosporonasahi (see table 2). […] Table 2: In vivo antifungal activity
(§2) Candida strains were tested for their susceptibility to the azole (7 dilution series, ranging from 1 mM to 0.01 mM) following the European Committee for Antimicrobial Susceptibility Testing protocol (EUCAST Definitive Document EDef 7.2 Revision, 2012). Briefly, cells were grown in RPMI1640 medium supplied with 2.0% glucose, counted and inoculated at a concentration of 1-5 x 10^5 CFU/ml.

T. asahi = experiment: as above; format: cell-based, Trichosporonasahi; settings: ≥ 50% inhibition of growth after 48 h incubation
Method: as §1, §2

P. paneum = experiment: as above; format: cell-based, Penicillumpaneum; settings: for MIC50: P. paneum, ≥ 50% inhibition of growth after 48 h incubation
Method: as §1, §2

[1] = system: human retinal pigment epithelial cell (RPE-1-hTert); experiment: cells
Method: In both topic and systemic applications, antimycotic drugs are getting in contact with patient tissues. It is therefore of utmost importance that new drug candidates display a lack of host toxicity. Thus, the antiproliferative effect of the new complexes were investigated in vitro on human retinal pigment epithelial cell (RPE-1-hTert). […] Table 1: Host cytotoxicity
Human fibroblast (MRC-5) and retinal pigment epithelial (RPE) cell lines were cultured in F-10 medium supplemented with 10% fetal calf serum (FCS, Gibco), 100 U/mL penicillin, 100 µg/mL streptomycin or DMEM medium (Gibco) supplemented with 10% fetal calf serum (FCS, Gibco), 100 U/mL penicillin, 100 µg/mL streptomycin, respectively, at 37 °C and 6% CO2.
Cytotoxicity studies of the compounds of the present invention were performed by a fluorometric cell viability assay using resazurin (Promocell GmbH). Briefly, one day before treatment the cells were plated in triplicate in 96-well plates at a density of 4 × 10^3 cells per well in 100 µL. Upon treating the cells with increasing concentrations of the compounds of the present invention, the cells were incubated for 48 h at 37 °C/6% CO2, the medium was removed, and 100 µL of complete medium containing resazurin (0.2 mg mL^-1 final concentration) was added. After 4 h of incubation at 37 °C/6% CO2, the fluorescence of the highly red fluorescent resorufin product was quantified at 590 nm emission with 540 nm excitation wavelength using a SpectraMax M5 Microplate Reader. The results were expressed as mean ± standard deviation error of independent experiments.

A. glaucus = experiment: Antifungal activity on pathological isolated strain (EUCAST susceptibility testing, MIC50); format: cell-based, Aspergillus glaucus; settings: ≥ 50% inhibition of growth after 48 h incubation
Method: as §1, §2

[2] = system: C. albicans (res. Strains); experiment: as above; format: cell-based, Candida albicans; settings: for MIC50: C. albicans (res. Strains), azole-resistant, ≥ 50% inhibition of growth after 48 h incubation
Method: as §1, §2

Candida Robusta = settings: wild type C. robusta, agar, 24 h at 30 °C; result in words, comparison with the parent drug
Method: To evaluate the antifungal acitivty of the new drug candidates, a well-plate based assay was used. The first investigation of antimycotic activity has been performed on a well-known model, namely Candida Robusta. Wild type colony of C. robusta was cultured and diluted to start the growing phase just before treatment and then seeded at different concentrations on the agar terrain poured with different concentrations of the target complexes and incubated for 24 h at 30 °C.
Wild type C. robusta was freshly inoculated and cultured in autoclaved YPD buffer containing 2% bacto peptone, 1% bacto yeast extract and 2% glucose anhydrous at 30°C (Kuehner shaker Labtherm, Kuehner Switzerland).
Briefly, one day before treatment, an aliquot of wild type C. robustawas inoculated in 5 mL YPD buffer solution (see above) and incubated overnight at 30°C. The fungal proliferation was then quantified at 600 nm in a Cary60 UV/Vis (Agilent Technologies). The SC was then seeded at different concentrations of the yeast (representing OD of 0.2, 0.02, 0.002 and 0.0002 for different colony growth rate) in 24-wells plates containing 2 mL growing terrain. […] The fungal colony formation was monitored with Alpha Digitec camera (Bucher Biotec) and the colony density was calculated with Alphalmager software (v1.3.0.7) with multiplex band analysis mode / single tool. […]

| MIC50 (Candida albicans; Candida albicans) [µM] | MIC50 (A. glaucus; Aspergillus glaucus) [µM] | MIC50 ([2]; Candida albicans) [µM] | Structure (SMILES) | MIC50 (T. asahi) [µM] | MIC50 (P. paneum) [µM] | cell viability [1] | IC50 ([1]; Homo sapiens, Epithelial cell, 48 h) [µM] | MIC50 (Candida albicans) [µM] | antifungal activity (Candida Robusta) | antimycotic potency over the parent drug (P. paneum; e.g. P.paneum, factor versus fluconazole) [fold] | MIC50 (A. glaucus) [µM] | MIC50 [2] [µM] | azole resistance ([2]; C. albicans resistant strain, result in words) | IC50 ([1]; RPE-1-hTert cells, 48 h incubation, resazurin, mean ± standard deviation error) [µM] |
| --- | --- | --- | --- | --- | --- | --- | --- | --- | --- | --- | --- | --- | --- | --- |
| 0.8 (≈ 0.245 µg/mL) | 0.8 (≈ 0.245 µg/mL) | > 209 | OC(Cn1cncn1)(Cn1cncn1)c1ccc(F)cc1F [Fluconazole] | 1.6 (≈ 0.49 µg/mL) | >209 | did not affect cell viability | > 100 | – | – | – | – | – | – | – |
| – | – | – | C[NH+](C[c-]1cccc1)CC(O)(Cn1cncn1)c1ccc(F)cc1F.[Cl-].[Fe+2].c1cc[cH-]c1 (stereo not drawn) [Methyl, syn/anti-N-(ferrocenylmethyl)-2-(2,4-difluorophenyl)-2-hydroxy-N-methyl-3-(1H-1,2,4-triazol-1-yl)propan-1-aminium chloride] | 0.13 | 0.25 | – | – | 0.07 | highest antimycotic activity | ≤ 800 | >1 | 0.7 | able to overcome azole resistance | – |
| – | – | – | Cl.OC(CNC[c-]1cccc1)(Cn1cncn1)c1ccc(F)cc1F.[Fe+2].c1cc[cH-]c1 (stereo not drawn) [H, syn/anti-N-(ferrocenylmethyl)-2-(2,4-difluorophenyl)-2-hydroxy-3-(1H-1,2,4-triazol-1-yl)propan-1-aminium chloride] | – | – | – | – | – | – | – | – | – | – | > 100 |
